Common to all, as to assay type: in vivo
The subject of series [1] is dexamethasone-induced rat growth failure model. Nature of the series: Combined administration study of human-type CNP-53 or various CNP derivatives in dexamethasone-induced rat growth failure model (Example 3). Particulars: dexamethasone 0.67 mg/mL pump alone or combined with 15 mg/mL pump of the CNP peptide, 5-week-old male Wistar rat, n=5. On the procedure: Osmotic pumps (MINI-OSMOTIC PUMP Model 2004, available from DURECT CORPORATION, flow rate: 0.25 μL/hr, for 28 days) were charged with 0.67 mg/mL solution of dexamethasone (dexamethasone injection “KS”, available from Kyoritsuseiyaku Corporation) and one osmotic pump was embedded in the hypoderm of the back of each 5-week-old male Crlj:WI (Wistar) rat (5 animals/group, Groups 2 to 6, a total of 25 animals). At the same time, one osmotic pump (the same as above) charged with a 15 mg/mL solution of CNP derivative (A) in Group 3, human-type CNP-53 in Group 4, CNP derivative (B) in Group 5 and CNP derivative (C) in Group 6 was embedded in the hypoderm of the back simultaneously. No substance was administered to the normal control group (Group 1, 5 animals). Then the animals were fed for 28 days, and transitions of the body weight, the body length and the tail length were measured. On the final day, the blood was collected from the abdominal aorta and the animals were caused to die under isoflurane anesthesia, and plasma was separated from the collected blood and the cholesterol concentration was determined by using a “LabAssay (trademark) cholesterol” (available from Wako Pure Chemical Industries, Ltd.). After collecting the blood and causing the animals to die, the right femur and thymus were extracted, and the length of the right femur and the weight of the thymus were measured.

Series [2] relates to steroid-induced growth failure, male Crlj:WI (Wistar) rat. Nature of the series: Simultaneous combined administration test of various steroids and CNP derivative (A) in rats (Example 5). On the procedure: 0.3 mg/mL solution of dexamethasone (dexamethasone injection “KS”, available from Kyoritsuseiyaku Corporation diluted with saline), prednisolone succinate suspended in 0.1% polysorbate-containing brine (available from Wako Pure Chemical Industries, Ltd., concentration of 5 mg/mL as prednisolone), or betamethasone dipropionate suspended in 0.1% polysorbate-containing brine (available from Wako Pure Chemical Industries, Ltd., concentration of 0.3 mg/mL as betamethasone) was administered to the hypoderm of the back of a 4-week-old male Crlj:WI (Wistar) rat (ten animals for each set of substances) in a volume of 1 mL/kg once a day for 28 days. No substance was administered to the control group (5 animals, Group 1). At the same time, for five of ten animals in each set (Group 2, Group 4, Group 6) a medium (0.03 mol/L acetate buffer (pH 4.0)/1% benzyl alcohol/10% sucrose) and for the remaining five animals (Group 3, Group 5, Group 7) the medium and a 1 mg/mL solution of CNP derivative (A) were administered in combination in the hypoderm of the back in a volume of 1 mL/kg once a day for 28 days. After measuring the body weight, the body length and the tail length under isoflurane anesthesia on the day after the final day of administration, blood was collected from the abdominal aorta and the animal was caused to die, the right femur was extracted and the femur length was measured.

The subject of series [3] is dexamethasone-induced growth failure, male Crlj:WI (Wistar) rat. Particulars: dexamethasone 1 mg/mL pump alone or combined with CNP derivative (A) 20 mg/mL pump, continuous s.c. 28 days, mean ± SD, n=6. On the procedure:
Osmotic pumps (MINI-OSMOTIC PUMP Model 2004, available from DURECT CORPORATION, flow rate: 0.25 μL/hr, for 28 days) were charged with a 1 mg/mL solution of dexamethasone (dexamethasone injection “KS”, available from Kyoritsuseiyaku Corporation, Group 2 and Group 3) or saline in a control group (Group 1), and one osmotic pump was embedded in the hypoderm of the back of each 7-week-old male Crlj:WI (Wistar) rat. At the same time, one osmotic pump (the same as described above) charged with a 20 mg/mL solution of CNP derivative (A) in Group 3, or charged with Medium 1 (0.03 mol/L acetate buffer (pH 4.0)/1% benzyl alcohol/10% sucrose) in Group 1 and Group 2 was embedded in the hypoderm of the back simultaneously with the pump containing dexamethasone or saline. Then the animals were fed for 28 days, and the body weight, the body length (length from the top of the nose to the anus) and the tail length were measured on the final day, and after collecting the blood from the abdominal aorta under isoflurane anesthesia, the right femur and major organs (spleen, thymus, liver, heart and lung) were collected. Regarding the femur, the bone length and width were measured by using a caliper, and the organ weights were measured. Concentrations of cholesterol and IGF-1 in plasma prepared from the blood, were determined by using cholesterol E-Test Wako (available from Wako Pure Chemical Industries, Ltd.) and Quantikine® ELISA Mouse/Rat IGF-I Immunoassay (MG100, available from R&D Systems). [Result]

The test system of the next series is male Crl: CD (SD) rat. Nature of the series: Preparation of dexamethasone-induced growth failure model rat (Example 1). Particulars: continuous s.c. dexamethasone 0.5 or 1 mg/mL, 28 days. On the procedure: Osmotic pumps (MINI-OSMOTIC PUMP Model 2004, available from DURECT CORPORATION, flow rate: 0.25 μL/hr, for 28 days) were charged with dexamethasone (dexamethasone injection “KS”, available from Kyoritsuseiyaku Corporation) having a concentration of 0.5 mg/mL (Group 2) or 1 mg/mL (Group 3), and one osmotic pump was embedded in the hypoderm of the back of each 7-week-old male Crl: CD (SD) rat (5 animals/group, a total of 10 animals). Additionally, in a control group (Group 1, 5 animals), one osmotic pump (the same as above) charged with saline was embedded in the hypoderm of the back of each animal. Then the animals were fed for 28 days, and their bodyweight was measured twice or three times a week. On the final day, after blood collection under isoflurane anesthesia followed by immediate euthanasia, the right femur was extracted, and the length was measured. Plasma was separated from the collected blood, and cholesterol concentration was determined by using cholesterol E-Test Wako (available from Wako Pure Chemical Industries, Ltd.), and the plasma corticosterone concentration was determined by using a Corticosterone, ELISA Kit, AssayMax (96 well) (EC3001-1, available from ASSAYPRO LLC.).

[4] abbreviates: dexamethasone 0.3 mg/mL, 1 mL/kg s.c. once a day 28 days, + medium or + CNP derivative (A) 1 mg/kg, n=5.

Regarding `C[C@@H]1C[C@H]2[C@@H]3CCC4=CC(=O)C=C[C@]4(C)[C@@]3(F)[C@@H](O)C[C@]2(C)[C@@]1(O)C(=O)CO` [Dexamethasone, dexamethasone], the “Body weight at dissection” value in series [1] (0.25 μL/hr continuous s.c. 28 days, mean ± SD) came out at 286 ± 17 g. In series [1] (continuous s.c. 28 days), the “Body length at dissection” value amounted to 199 ± 2 mm; the “Body length, variation from preadministration value (Δ value)” value is reported as “(23.8 ± 2.4) mm”; the “Body weight, variation from preadministration value (Δ value)” value is on record as “(118 ± 15) g”; the “Right femur length at dissection” value is on record as 32.7 ± 0.3 mm. Further, in series [1] (continuous s.c. 28 days), the “Tail length at dissection” value is 202 ± 3 mm; the “Tail length, variation from preadministration value (Δ value)” value is “(35.2 ± 3.7) mm”; the “thymus body weight ratio” value was “[0.11 ± 0.02%]”; the “thymus weight at dissection” value is reported as 0.36 ± 0.04 g. In series [2] (setting [4]), the “Body length at dissection” value came to 177 ± 4 mm; the “Body length, variation from preadministration value (Δ value)” value is “(27 ± 5) mm”; the “Body weight, variation from preadministration value (Δ value)” value is reported as “(69 ± 5) g”; the “Right femur length at dissection” value came to 28.3 ± 0.4 mm. Further, in series [2] (setting [4]), the “Tail length at dissection” value was determined as 174 ± 4 mm and the “Tail length, variation from preadministration value (Δ value)” value is reported as “(47 ± 7) mm”. Besides, the “Body weight at dissection” value in series [2] (dexamethasone 0.3 mg/mL, 1 mL/kg s.c. once a day 28 days, + medium or + CNP derivative (A) 1 mg/mL, 1 mL/kg s.c. once a day, 4-week-old male Wistar rat, mean ± SD, n=5) came to 176 ± 5 g. For the same compound, the “growth failure in rats by repeated administration of the steroid for 28 days (in words)” value in series [2] (rat, in vivo, sc) is recorded as “induce growth failure”. Besides, in series [3] (7-week-old male Wistar rat), the “Body length at final day” value was 219 ± 5 mm and the “Tail length at final day” value amounted to 195 ± 6 mm. In series [3] (male Wistar rat), the “Right femur Length” value is listed as 35.6 ± 0.6 mm and the “Right femur Wide (epiphyseal region, maximum width)” value is listed as 7.7 ± 0.4 ^NS mm. In addition, the “body weight (in words)” value with male Crl: CD (SD) rat (SD rat (FIG. 1)) was “decreased dose-dependently”. In addition, the “femur length (in words)” value with male Crl: CD (SD) rat (SD rat (FIG. 2)) is “shortened dose-dependently”.
